Source: patent US20180250403A1, “CONJUGATES” (AGENCY FOR SCIENCE, TECHNOLOGY AND RESEARCH, priority 2015, published 2018)

Test system: B16F10 cells
Assay: Cell proliferation / cytotoxicity (Incucyte) with and without light irradiation
Type: cell-based, murine
Conditions: B16F10, 10 uM
Experimental: Murine melanoma B16F10 cells were seeded at 3000-4000 cells per well in 96 well black view plate Perkin Elmer plates in DMEM media without phenol, as phenol red may interfere in the absorption of light. After overnight incubation, media was aspirated from the wells and varying concentrations of photosensitizers were added to the cells. Cells were incubated for 4 hours in dark at 37° C., after 4 hours cells were washed twice with 1×PBS and 300 μL of media was added to the wells before placing the plates in Incucyte ZOOM Live cell imaging machine to capture the images after every hour. Percentage confluence was measured over a time period. Similar approach was taken for keratinocyte cell lines NTERT-1 except the starting confluence was 75-85%. This is to mimic the physiological situation in the body where keratinocytes are present in much larger numbers than melanocytes. […]
Mouse melanoma cells B16-F10, human skin keratinocytes N-TERT-1 and primary human melanocytes MeL at cell densities of 4000 cells/well, 6000 cells/well and 3500 cells/well respectively were seeded to achieve similar starting confluence in 96-black Perkin-Elmer well plate in DMEM medium without phenol red (for B16F10 and MeL) and KSFM media (for N/TERT-1 cells) and kept for overnight at 37° C. […] Percentage confluence was measured over a time period. […]

CN(C)c1ccc2nc3ccc(=[N+](C)C)cc-3sc2c1 [MB, methylene blue]
cytotoxicity in dark: no cytotoxicity
